Experimental data taken from PubChem BioAssay AID2060601 (Molecular Pharmacology Branch, DTP, NCI, 2025).
Values joined by “and” are separate entries in the source; they are usually repeats but may differ in a detail not shown here. Equal values may be shown once. Blank lines part the entries; values can stand above or below the compound they belong to.

Tested on: 874868-142-R-J2-PDC complex spheroids, growth % test/control
Assay: Anticancer human tumor 874868-142-R-J2-PDC patient-derived head and neck squamous carcinoma cell line growth inhibition [CLK]
Conditions: for viability, T/C: stronger effect = lower value
Summary of the method: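 Multi-cell-type spheroids combined patient-derived tumor cells with HUVEC endothelial cells and human mesenchymal stem cells. Paired agents were dosed in half-log steps down from about clinical Cmax, or from 10 microM where Cmax was unknown.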

[1] = curve of first compound, second compound 0.0316 µM
[2] = curve of first compound, second compound 0.1 µM
[3] = curve of first compound, second compound 0.316 µM
[4] = curve of first compound, second compound 1 µM
[5] = curve of first compound, second compound 3.16 µM
[6] = curve of first compound, second compound 10 µM
[7] = second compound 0.0316 µM, first compound 0.0316 µM
[8] = second compound 0.0316 µM, first compound 0.1 µM
[9] = second compound 0.0316 µM, first compound 0.316 µM
[10] = second compound 0.0316 µM, first compound 1 µM
[11] = second compound 0.0316 µM, first compound 3.16 µM
[12] = second compound 0.0316 µM, first compound 10 µM
[13] = second compound 0.1 µM, first compound 0.0316 µM
[14] = second compound 0.1 µM, first compound 0.1 µM
[15] = second compound 0.1 µM, first compound 0.316 µM
[16] = second compound 0.1 µM, first compound 1 µM
[17] = second compound 0.1 µM, first compound 3.16 µM
[18] = second compound 0.1 µM, first compound 10 µM
[19] = second compound 0.316 µM, first compound 0.0316 µM
[20] = second compound 0.316 µM, first compound 0.1 µM
[21] = second compound 0.316 µM, first compound 0.316 µM
[22] = second compound 0.316 µM, first compound 1 µM
[23] = second compound 0.316 µM, first compound 3.16 µM
[24] = second compound 0.316 µM, first compound 10 µM
[25] = second compound 1 µM, first compound 0.0316 µM
[26] = second compound 1 µM, first compound 0.1 µM
[27] = second compound 1 µM, first compound 0.316 µM
[28] = second compound 1 µM, first compound 1 µM
[29] = second compound 1 µM, first compound 3.16 µM
[30] = second compound 1 µM, first compound 10 µM
[31] = second compound 3.16 µM, first compound 0.0316 µM
[32] = second compound 3.16 µM, first compound 0.1 µM
[33] = second compound 3.16 µM, first compound 0.316 µM
[34] = second compound 3.16 µM, first compound 1 µM
[35] = second compound 3.16 µM, first compound 3.16 µM
[36] = second compound 3.16 µM, first compound 10 µM
[37] = second compound 10 µM, first compound 0.0316 µM
[38] = second compound 10 µM, first compound 0.1 µM
[39] = second compound 10 µM, first compound 0.316 µM
[40] = second compound 10 µM, first compound 1 µM
[41] = second compound 10 µM, first compound 3.16 µM
[42] = second compound 10 µM, first compound 10 µM
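Also: spheroids exposed to the compounds for 7 days.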
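For viability, T/C in this document: 100% = DMSO vehicle control viability.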

SMILES: CCCS(=O)(=O)Nc1ccc(F)c(C(=O)c2c[nH]c3ncc(-c4ccc(Cl)cc4)cc23)c1F + CN1CCN(c2cc(C(=O)Nc3cc4cc(-c5cnn(C)c5)ccc4cn3)ccn2)CC1
IC50 [1]: > 10000 nM | IC50 [2]: > 10000 nM | IC50 [3]: < 31.6 nM | IC50 [4]: < 31.6 nM | IC50 [5]: < 31.6 nM | IC50 [6]: < 31.6 nM | viability, T/C [7]: 99.5% | viability, T/C [8]: 95.3% | viability, T/C [9]: 97.4% | viability, T/C [10]: 120% | viability, T/C [11]: 104% | viability, T/C [12]: 88.4% | viability, T/C [13]: 71.4% | viability, T/C [14]: 82.1% | viability, T/C [15]: 101% | viability, T/C [16]: 103% | viability, T/C [17]: 99.2% | viability, T/C [18]: 67.2% | viability, T/C [19]: 21.1% | viability, T/C [20]: 18.1% | viability, T/C [21]: 16% | viability, T/C [22]: 14.8% | viability, T/C [23]: 20.2% | viability, T/C [24]: 17.8% | viability, T/C [25]: 0.34% | viability, T/C [26]: 0.78% | viability, T/C [27]: 0.38% | viability, T/C [28]: 0.32% | viability, T/C [29]: 0.26% | viability, T/C [30]: 3.04% | viability, T/C [31]: 0.22% | viability, T/C [32]: 3.25% | viability, T/C [33]: 0.32% | viability, T/C [34]: 0.24% | viability, T/C [35]: 0.3% | viability, T/C [36]: 2.5% | viability, T/C [37]: 0.34% | viability, T/C [38]: 0.84% | viability, T/C [39]: 0.18% | viability, T/C [40]: 0.18% | viability, T/C [41]: 0.19% | viability, T/C [42]: 2%

SMILES: C#Cc1c(F)ccc2cc(O)cc(-c3ncc4c(N5CC6CCC(C5)N6)nc(OCC56CCCN5CC(F)C6)nc4c3F)c12 (configuration not stated) + CN1CCN(c2cc(C(=O)Nc3cc4cc(-c5cnn(C)c5)ccc4cn3)ccn2)CC1
IC50 [1]: 8540 nM | IC50 [2]: 1410 nM | IC50 [3]: < 31.6 nM | IC50 [4]: < 31.6 nM | IC50 [5]: < 31.6 nM | IC50 [6]: < 31.6 nM | viability, T/C [7]: 98.2% | viability, T/C [8]: 85.1% | viability, T/C [9]: 76.3% | viability, T/C [10]: 73% | viability, T/C [11]: 49.8% | viability, T/C [12]: 51.2% | viability, T/C [13]: 69.2% | viability, T/C [14]: 74.1% | viability, T/C [15]: 68.8% | viability, T/C [16]: 51.2% | viability, T/C [17]: 41.5% | viability, T/C [18]: 54.2% | viability, T/C [19]: 21% | viability, T/C [20]: 24% | viability, T/C [21]: 17.3% | viability, T/C [22]: 13% | viability, T/C [23]: 15.5% | viability, T/C [24]: 15.4% | viability, T/C [25]: 0.39% | viability, T/C [26]: 0.42% | viability, T/C [27]: 0.39% | viability, T/C [28]: 0.91% | viability, T/C [29]: 0.5% | viability, T/C [30]: 1.33% | viability, T/C [31]: 0.37% | viability, T/C [32]: 2.5% | viability, T/C [33]: 0.31% | viability, T/C [34]: 0.32% | viability, T/C [35]: 0.26% | viability, T/C [36]: 4.54% | viability, T/C [37]: 0.53% | viability, T/C [38]: 1.9% | viability, T/C [39]: 3.6% | viability, T/C [40]: 0.18% | viability, T/C [41]: 0.9% | viability, T/C [42]: 6.16%

SMILES: O=C(c1cc(Cc2n[nH]c(=O)c3ccccc23)ccc1F)N1CCN(C(=O)C2CC2)CC1 + CN1CCN(c2cc(C(=O)Nc3cc4cc(-c5cnn(C)c5)ccc4cn3)ccn2)CC1
IC50 [1]: > 10000 nM | IC50 [2]: > 10000 nM | IC50 [3]: < 31.6 nM | IC50 [4]: < 31.6 nM | IC50 [5]: < 31.6 nM | IC50 [6]: < 31.6 nM | viability, T/C [7]: 86.3% | viability, T/C [8]: 88% | viability, T/C [9]: 89.6% | viability, T/C [10]: 94.7% | viability, T/C [11]: 68.2% | viability, T/C [12]: 83.5% | viability, T/C [13]: 71.1% | viability, T/C [14]: 70.4% | viability, T/C [15]: 69.2% | viability, T/C [16]: 65.6% | viability, T/C [17]: 46.4% | viability, T/C [18]: 60.5% | viability, T/C [19]: 23.5% | viability, T/C [20]: 20.9% | viability, T/C [21]: 17.7% | viability, T/C [22]: 12.1% | viability, T/C [23]: 21.3% | viability, T/C [24]: 15.1% | viability, T/C [25]: 0.42% | viability, T/C [26]: 0.25% | viability, T/C [27]: 0.36% | viability, T/C [28]: 0.19% | viability, T/C [29]: 0.32% | viability, T/C [30]: 0.44% | viability, T/C [31]: 0.18% | viability, T/C [32]: 0.2% | viability, T/C [33]: 0.63% | viability, T/C [34]: 0.28% | viability, T/C [35]: 0.34% | viability, T/C [36]: 2.51% | viability, T/C [37]: 0.11% | viability, T/C [38]: 0.31% | viability, T/C [39]: 3.38% | viability, T/C [40]: 0.18% | viability, T/C [41]: 0.23% | viability, T/C [42]: 0.69%

The next lines start with results.

IC50 [1]: 4.48 nM | IC50 [2]: 4.69 nM | IC50 [3]: 4.24 nM | IC50 [4]: < 0.949 nM | IC50 [5]: < 0.949 nM | IC50 [6]: < 0.949 nM
SMILES: CC(C)CC(NC(=O)C(Cc1ccccc1)NC(=O)c1cnccn1)B(O)O (configuration not stated) + CNC(=O)c1ccc(Nc2nc(OC3CCCC3)c3c(-c4ccc5nc(C)oc5c4)c[nH]c3n2)c(OC)c1
viability, T/C (second compound 0.0316 µM, first compound 0.000949 µM): 96.8% | viability, T/C (second compound 0.0316 µM, first compound 0.003 µM): 76.4% | viability, T/C (second compound 0.0316 µM, first compound 0.00949 µM): 0.57% | viability, T/C (second compound 0.0316 µM, first compound 0.03 µM): 0.3% | viability, T/C (second compound 0.0316 µM, first compound 0.0949 µM): 0.21% | viability, T/C (second compound 0.0316 µM, first compound 0.3 µM): 0.23% | viability, T/C (second compound 0.1 µM, first compound 0.000949 µM): 89.5% | viability, T/C (second compound 0.1 µM, first compound 0.003 µM): 80.7% | viability, T/C (second compound 0.1 µM, first compound 0.00949 µM): 1.32% | viability, T/C (second compound 0.1 µM, first compound 0.03 µM): 0.44% | viability, T/C (second compound 0.1 µM, first compound 0.0949 µM): 0.2% | viability, T/C (second compound 0.1 µM, first compound 0.3 µM): 4.13% | viability, T/C (second compound 0.316 µM, first compound 0.000949 µM): 66.8% | viability, T/C (second compound 0.316 µM, first compound 0.003 µM): 70.8% | viability, T/C (second compound 0.316 µM, first compound 0.00949 µM): 6.3% | viability, T/C (second compound 0.316 µM, first compound 0.03 µM): 0.22% | viability, T/C (second compound 0.316 µM, first compound 0.0949 µM): 0.26% | viability, T/C (second compound 0.316 µM, first compound 0.3 µM): 5.41% | viability, T/C (second compound 1 µM, first compound 0.000949 µM): 47.7% | viability, T/C (second compound 1 µM, first compound 0.003 µM): 31.9% | viability, T/C (second compound 1 µM, first compound 0.00949 µM): 0.47% | viability, T/C (second compound 1 µM, first compound 0.03 µM): 0.24% | viability, T/C (second compound 1 µM, first compound 0.0949 µM): 5.77% | viability, T/C (second compound 1 µM, first compound 0.3 µM): 17.3% | viability, T/C (second compound 3.16 µM, first compound 0.000949 µM): 45.3% | viability, T/C (second compound 3.16 µM, first compound 0.003 µM): 21.6% | viability, T/C (second compound 3.16 µM, first compound 0.00949 µM): 0.47% | viability, T/C (second compound 3.16 µM, first compound 0.03 µM): 0.19% | viability, T/C (second compound 3.16 µM, first compound 0.0949 µM): 7.41% | viability, T/C (second compound 3.16 µM, first compound 0.3 µM): 10.4% | viability, T/C (second compound 10 µM, first compound 0.000949 µM): 38.6% | viability, T/C (second compound 10 µM, first compound 0.003 µM): 20% | viability, T/C (second compound 10 µM, first compound 0.00949 µM): 3.06% | viability, T/C (second compound 10 µM, first compound 0.03 µM): 0.36% | viability, T/C (second compound 10 µM, first compound 0.0949 µM): 3.69% | viability, T/C (second compound 10 µM, first compound 0.3 µM): 6.49%

IC50 (curve of compound): 9280 nM and > 10000 nM
SMILES: C#Cc1c(F)ccc2cc(O)cc(-c3ncc4c(N5CC6CCC(C5)N6)nc(OCC56CCCN5CC(F)C6)nc4c3F)c12 (configuration not stated)
viability, T/C (compound 0.0316 µM): 87.8% and 104% | viability, T/C (compound 0.1 µM): 90.5% and 95.1% | viability, T/C (compound 0.316 µM): 85.1% and 93.7% | viability, T/C (compound 1 µM): 82.3% and 61% | viability, T/C (compound 3.16 µM): 61.4% and 59% | viability, T/C (compound 10 µM): 49.3% and 46%

IC50 (curve of compound): 8.88 nM
SMILES: COc1c(OCCCN2CCOCC2)ccc2c3n(c(=NC(=O)c4cnc(N)nc4)nc12)CCN3
viability, T/C (compound 0.00316 µM): 67% | viability, T/C (compound 0.01 µM): 48.4% | viability, T/C (compound 0.0316 µM): 22.6% | viability, T/C (compound 0.1 µM): 10.7% | viability, T/C (compound 0.316 µM): 5.08% | viability, T/C (compound 1 µM): 3.71%
